Test results published in US20260216294A1, “BETA 2-ADRENERGIC RECEPTOR AGONISTS FOR TREATMENT OR PREVENTION OF MUSCLE WASTING” (ATROGI AB, priority 2023, published 2026).

Tests used:
[1] = target: T1, β2-adrenergic receptor (Rattus norvegicus, UniProt P10608); test: Glucose uptake in the presence of the selective β2-adrenergic receptor antagonist ICI-118551 (Biological Example 1); format: cell-based; conditions: L6-myotubes; test compound 1×10^−5 M; different concentrations of ICI-118551; FIGS. 1a-1c
T1 construct: endogenous in cells; host or cells: L6 myoblasts differentiated into myotubes
Experimental: L6-myoblasts were grown in Dulbecco's Modified Eagle's Medium (DMEM) containing 1 g/L glucose supplemented with 10% fetal bovine serum (FBS), 2 mM L-glutamine, 50 U/mL penicillin, 50 μg/mL streptomycin and 10 mM HEPES. Cells were plated at 1×10^5 cells per mL in 24-well plates. After reaching 90% confluence the cells were grown in medium containing 2% FBS for 7 days where upon cells differentiated into myotubes. The differentiated L6-myotubes were serum-starved overnight in medium containing 0.5% fatty-acid free BSA and stimulated with the test compound at a final concentration of 1×10^−5 M in the presence of different concentrations of the selective β2-adrenergic receptor antagonist ICI-118551. After 1 h 40 min the cells were washed with warm, glucose free medium twice and another portion of agonist was added to the glucose free medium. After another 20 min of incubation the cells were exposed to 50 nM ^3H-2-deoxyglucose for 10 min before washed in ice cold glucose free medium three times and lysed in 400 μL/well 0.2 M NaOH for 1 h at 60° C. The cell lysate was mixed with 4 ml scintillation buffer (Emulsifier Safe, Perkin Elmer) and the radioactivity was detected in a β-counter (Tri-Carb 4810TR, Perkin Elmer).

[2] = system: L6-myotubes; test: Glucose uptake in differentiated L6-myotubes (Biological Example 2); format: cell-based; conditions: L6-myotubes; FIGS. 2a-2d
How it was run: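 Differentiated L6 myotubes were serum-starved overnight in 0.5% fatty-acid-free BSA and then stimulated with compound or isoprenaline at 1×10^−5 M final. After 1 h 40 min cells were washed and re-dosed in glucose-free medium. Twenty minutes later, uptake of 50 nM ^3H-2-deoxyglucose over 10 min was measured by scintillation counting of NaOH lysates.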

[3] = system: L6-myotubes; test: Measurement of intracellular cAMP levels in differentiated L6-myotubes (Biological Example 3); format: cell-based; conditions: L6-myotubes; 15 min stimulation; compared with isoprenaline; FIGS. 2a-2d
How it was run: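 Serum-starved differentiated L6 myotubes stimulated 15 min with test compound at 1×10^−5 M final (isoprenaline as reference) in HBSS with 1% BSA, 5 mM HEPES, 1 mM IBMX, pH 7.4. Cells EtOH-extracted, lysed, and intracellular cAMP measured by AlphaScreen.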

[4] = target: T2, β2-adrenergic receptor (Homo sapiens, UniProt P07550); test: β-arrestin 2 recruitment, Large BiT/Small BiT luciferase complementation in HEK293 cells (Biological Example 4); format: cell-based; conditions: luminescence after 31 min, compared with isoprenaline, FIGS. 3a-3c
T2 construct: expressed in transfected cells; host or cells: HEK293
Experimental: HEK293 cells are transfected with both the β2-adrenergic receptor attached with a Large BiT SNAP-tag protein, and with p-arrestin 2 attached to a Small BiT SNAP-tag protein. When cells are stimulated and the receptor recruits β-arrestin 2, the Small- and Large-BiT proteins merge, forming a functional luciferase enzyme, that in presence of furimazine generates light. After 31 min, the light is measured with a luminescence plate reader.

[5] = system: C57Bl/6N mice; test: Combination of Compound C and liraglutide in mice on high-fat, high-sucrose diet (Biological Example 8); format: in vivo; conditions: diet-induced obese mice; daily s.c. for 2 weeks; liraglutide 0.1 mg/kg, Compound C 5 mg/kg; FIG. 12b
Experimental: 2.5 Months old male C57Bl/6N mice were grouped caged (4-5 mice per cage), kept at 30° C. and fed with high-fat, high-sucrose diet (45% fat) for 5 months. The mice were divided into four groups (2-3 mice per cage) according to their fasting blood glucose levels, glucose tolerance, body weight, body fat and lean mass, and treated daily for 2 weeks, subcutaneously with either vehicle, liraglutide (0.1 mg/kg), Compound C (5 mg/kg), or a mixture of liraglutide (0.1 mg/kg) and Compound C (5 mg/kg). Food intake and body weight were measured every other day; body fat and lean mass were measured weekly.

T1 sequence (P10608 whole entry): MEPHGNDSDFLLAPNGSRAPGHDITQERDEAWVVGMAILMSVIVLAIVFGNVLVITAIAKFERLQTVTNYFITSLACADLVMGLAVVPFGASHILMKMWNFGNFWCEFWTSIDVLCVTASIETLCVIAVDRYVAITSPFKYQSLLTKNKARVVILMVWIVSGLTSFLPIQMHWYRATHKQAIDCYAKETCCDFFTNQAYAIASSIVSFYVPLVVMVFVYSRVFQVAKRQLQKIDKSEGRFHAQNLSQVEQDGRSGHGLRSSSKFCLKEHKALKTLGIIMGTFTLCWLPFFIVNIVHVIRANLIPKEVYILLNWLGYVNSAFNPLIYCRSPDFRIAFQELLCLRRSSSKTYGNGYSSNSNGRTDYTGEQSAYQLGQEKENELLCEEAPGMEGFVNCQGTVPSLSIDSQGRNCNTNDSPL
T2 sequence (P07550 whole entry, species assumed): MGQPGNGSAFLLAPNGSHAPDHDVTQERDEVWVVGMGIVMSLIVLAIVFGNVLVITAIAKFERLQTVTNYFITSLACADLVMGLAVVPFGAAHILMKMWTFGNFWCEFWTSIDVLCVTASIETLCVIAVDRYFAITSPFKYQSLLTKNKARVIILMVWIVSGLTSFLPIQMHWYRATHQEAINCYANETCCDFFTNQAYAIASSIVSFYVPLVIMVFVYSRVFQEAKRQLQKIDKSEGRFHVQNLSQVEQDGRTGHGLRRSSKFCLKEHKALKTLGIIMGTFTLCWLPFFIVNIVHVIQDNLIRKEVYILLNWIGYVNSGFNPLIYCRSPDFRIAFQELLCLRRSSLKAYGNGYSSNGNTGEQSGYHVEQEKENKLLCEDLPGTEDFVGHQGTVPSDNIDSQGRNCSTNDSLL

## CC(C)(C)NC[C@H](O)c1ccc(F)c(N)c1F.O=C(O)/C=C\C(=O)O [Compound C, (R)-1-(3-Amino-2,4-difluorophenyl)-2-(tert-butylamino)ethan-1-ol maleate]
[1]
  glucose uptake promoted by the compound in the presence of ICI-118551: inhibited in a dose-dependent manner
[2]
  glucose uptake: full glucose uptake response
[3]
  intracellular cAMP levels: low intracellular cAMP levels
[4]
  β-arrestin 2 recruitment: minimal p-arrestin 2 recruitment
[5]
  change in lean mass: significantly lower as compared to administration of liraglutide alone
